{
  "source": "paper PMC7156724",
  "about": "“Potent BRD4 inhibitor suppresses cancer cell-macrophage interaction” (Nature Communications, 2020)",
  "key": {"ES-2 cells": {"tested_on": "ES-2 cells", "experiment": "MTT cell growth assay, ES-2", "assay_type": "cell-based, human", "conditions": "5 days", "procedure": "(§1) Fig. 2 NHWD-870 inhibited BRD4 phosphorylation and c-MYC expression, and suppressed cell growth. a Representative western blot analysis of p-BRD4 (s484/488), BRD4, c-MYC, and GAPDH after treatment of MDA-MB231, SUM159, A2780 ES-2, and H526 cells with JQ-1 or NHWD-870 at the indicated concentrations for 24 h. GAPDH served as the loading control. Selected from three independent experiments. b MTT assays of H526, A2780, ES-2, and MDA-MB231 cells treated with JQ-1 or NHWD-870 at the indicated concentrations for 5 days. Data are presented as mean ± SEM from three independent experiments. c, d Clonogenic assays of H526, A2780, ES-2 and MDA-MB231 cells treated with 250 nM JQ-1 or NHWD-870 for 5 days. Shown are representative images (c) and quantification of colonies (d). […] Shown are representative images (e) and quantification of relative colony sizes (f). Scale bar, 50 μm. Data are presented as mean ± SEM from five independent experiments. p values were calculated using two-tailed, unpaired t tests in this figure. **p < 0.01; ***p < 0.001. Source data are provided as a Source Data file.\n37℃, 5% CO2. […]"}, "MDA-MB231 cells [1]": {"tested_on": "MDA-MB231 cells", "experiment": "Clonogenic (colony formation) assay, MDA-MB231", "assay_type": "cell-based, human", "conditions": "MDA-MB231, 250 nM, 5 days", "procedure": "as §1, with “file. […]” for “file.”\n5. Colony formation assay. Cells were seeded in 6-well plates at 3,000 cells/well […]\nevery week. […] Colony numbers were calculated with imageJ version"}, "MDA-MB231 cells [2]": {"tested_on": "MDA-MB231 cells", "experiment": "3D matrigel assay, MDA-MB231", "assay_type": "cell-based, human", "conditions": "MDA-MB231, 100 nM", "procedure": "as §1\n(§2) Single clone spheroids were generated by culturing A2780, ES-2, H526 and MDA-MB231 cells for 16 h as a hanging drop over a humidified plate in a CO2 incubator in their corresponding complete media. […] The relative spheroid sizes were measured with ImageJ version 1.52s using the 15 representative spheroids."}, "TAMs": {"tested_on": "TAMs", "experiment": "3D Matrigel culture of TAMs, direct treatment", "assay_type": "cell-based, mouse", "procedure": "CD45^+CD11b^+F4/80^+ TAMs were isolated from peritoneal metastasis of A2780 tumor-bearing mice and cultured in RPMI-1640 supplemented with 10% FBS, 1% penicillin/streptomycin, and 0–50 ng/ml CSF1 (R&D Systems) as indicated according to standard protocols. In the cancer cell-macrophage co-culture experiments, CSF1 was not added. In the transwell (Corning, pore size, 0.4 μm) co-culture experiments, tumor cells were placed into the upper chamber, and TAMs were seeded into the lower chamber.\nas §2, with “spheroids. […]” for “spheroids.”\nwith anti-CD45, CD11b and CD206 followed by FACS analysis. Shown are representative FACS plots (c) and quantification of the percentage of CD11b+CD206+ cells (d). Data are presented as mean ± SEM from 5 different mice. p values were calculated using two-tailed, unpaired t tests. **, p<0.01; ***, p<0.001. […] Quantification of spheroid volumes (f). Data are presented as mean ± SEM from 15 independent experiments. p values were calculated using two-tailed, unpaired t tests. **, p<0.01. […]"}},
  "note": "Where “and” joins values, the source holds several entries; their conditions need not be identical. Identical values can stand only once.",
  "data": [
    {"smiles": "Cc1nnn(C)c1-c1cnc2c3c4cnn(C)c4ccc3n([C@H](c3ccccc3)C3CCOCC3)c2c1", "note": "[NHWD-870]", "values": [
      {"measurement": "MTT assay, relative cell number", "setting": "ES-2 cells; ES-2, 0.1 nM", "result": "0.993 and 0.983 and 0.961"},
      {"measurement": "MTT assay, relative cell number", "setting": "ES-2 cells; ES-2, 1 nM", "result": "0.911 and 0.921 and 0.934"},
      {"measurement": "MTT assay, relative cell number", "setting": "ES-2 cells; ES-2, 10 nM", "result": "0.355 and 0.301 and 0.382"},
      {"measurement": "MTT assay, relative cell number", "setting": "ES-2 cells; ES-2, 500 nM", "result": 0},
      {"measurement": "MTT assay, relative cell number", "setting": "ES-2 cells; ES-2, 1000 nM", "result": 0},
      {"measurement": "MTT assay, relative cell number", "setting": "ES-2 cells; ES-2, 5000 nM", "result": 0},
      {"measurement": "MTT assay, relative cell number", "setting": "ES-2 cells; ES-2, 10000 nM", "result": 0},
      {"measurement": "Clone Number (clonogenic assay)", "setting": "MDA-MB231 cells [1]", "result": "571 and 603 and 635 and 542 and 519"},
      {"measurement": "Clone Size (relative colony size, 3D matrigel assay)", "setting": "MDA-MB231 cells [2]", "result": "23.2 and 29.8 and 19 and 25.8 and 21.1"},
      {"measurement": "fold inhibition of colony size of macrophages", "setting": "TAMs", "result": "< 2", "unit": "fold"},
      {"measurement": "decrease of the ability of TAMs to form colonies in a 3D culture system", "setting": "TAMs; 100 nM", "result": "< 50", "unit": "%"}
    ]}
  ]
}
